Experiments:
Assay type in all cases: binding
[1] = molecular target: T1, kinases (KINOMEscan panel) (Homo sapiens, UniProt O00141); details: kinase SGK1; NEW KINOMEscan
T1 sequence (O00141 1-431): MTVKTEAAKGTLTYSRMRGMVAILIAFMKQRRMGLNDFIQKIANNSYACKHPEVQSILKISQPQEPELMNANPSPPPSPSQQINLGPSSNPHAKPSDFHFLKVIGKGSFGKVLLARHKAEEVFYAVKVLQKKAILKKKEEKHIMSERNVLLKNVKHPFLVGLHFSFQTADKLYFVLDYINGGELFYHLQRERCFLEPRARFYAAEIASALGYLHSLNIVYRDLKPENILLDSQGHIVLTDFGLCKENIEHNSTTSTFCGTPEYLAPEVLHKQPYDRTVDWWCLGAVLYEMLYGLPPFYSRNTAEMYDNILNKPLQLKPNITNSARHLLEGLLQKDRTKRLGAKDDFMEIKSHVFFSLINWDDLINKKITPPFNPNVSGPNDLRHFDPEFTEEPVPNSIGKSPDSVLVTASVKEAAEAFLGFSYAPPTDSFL

[2] = molecular target: T2, kinases (KINOMEscan panel) (Homo sapiens, UniProt P35626); details: GRK3; NEW KINOMEscan
T2 sequence (P35626 1-688): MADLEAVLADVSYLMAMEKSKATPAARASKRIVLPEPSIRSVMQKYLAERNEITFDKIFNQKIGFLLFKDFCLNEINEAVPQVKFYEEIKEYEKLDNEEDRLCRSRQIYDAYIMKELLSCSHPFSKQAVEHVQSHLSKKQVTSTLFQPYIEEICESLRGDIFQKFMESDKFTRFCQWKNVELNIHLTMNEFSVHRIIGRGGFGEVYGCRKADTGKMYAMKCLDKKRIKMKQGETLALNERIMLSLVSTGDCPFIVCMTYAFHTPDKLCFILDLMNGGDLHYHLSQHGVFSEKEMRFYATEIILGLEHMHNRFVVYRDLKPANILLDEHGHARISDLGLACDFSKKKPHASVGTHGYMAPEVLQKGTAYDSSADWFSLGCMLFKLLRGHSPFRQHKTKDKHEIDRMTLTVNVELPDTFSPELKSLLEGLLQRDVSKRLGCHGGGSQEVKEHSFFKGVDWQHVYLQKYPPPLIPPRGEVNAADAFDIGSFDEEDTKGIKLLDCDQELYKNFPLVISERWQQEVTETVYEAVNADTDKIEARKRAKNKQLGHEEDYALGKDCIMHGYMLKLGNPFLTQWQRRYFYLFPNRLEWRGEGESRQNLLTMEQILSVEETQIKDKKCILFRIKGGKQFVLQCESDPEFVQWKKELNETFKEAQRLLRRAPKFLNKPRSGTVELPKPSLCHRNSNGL

[3] = molecular target: T3, kinases (KINOMEscan panel) (Homo sapiens, UniProt Q9NRH2); details: kinase SNRK; NEW KINOMEscan
T3 sequence (Q9NRH2 1-765): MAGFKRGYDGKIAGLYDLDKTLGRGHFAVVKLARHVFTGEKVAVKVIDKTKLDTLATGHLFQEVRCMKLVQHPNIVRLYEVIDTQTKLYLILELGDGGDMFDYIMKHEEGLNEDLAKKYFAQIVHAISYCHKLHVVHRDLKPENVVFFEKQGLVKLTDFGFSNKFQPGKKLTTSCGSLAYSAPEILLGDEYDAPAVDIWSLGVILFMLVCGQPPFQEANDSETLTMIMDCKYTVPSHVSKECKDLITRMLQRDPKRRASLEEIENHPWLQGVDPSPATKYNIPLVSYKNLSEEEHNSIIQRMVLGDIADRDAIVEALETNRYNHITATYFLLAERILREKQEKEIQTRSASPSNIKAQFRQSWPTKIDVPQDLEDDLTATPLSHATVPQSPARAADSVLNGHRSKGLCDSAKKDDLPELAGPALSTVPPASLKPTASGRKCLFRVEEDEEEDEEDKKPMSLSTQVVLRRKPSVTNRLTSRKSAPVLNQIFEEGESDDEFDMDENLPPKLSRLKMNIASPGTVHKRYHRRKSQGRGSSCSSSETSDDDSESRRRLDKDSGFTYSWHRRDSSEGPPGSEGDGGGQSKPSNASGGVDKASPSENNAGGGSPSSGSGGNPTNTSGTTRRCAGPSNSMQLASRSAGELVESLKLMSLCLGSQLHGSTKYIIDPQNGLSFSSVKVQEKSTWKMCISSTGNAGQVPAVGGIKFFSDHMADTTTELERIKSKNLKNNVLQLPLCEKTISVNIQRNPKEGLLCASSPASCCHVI

[4] = molecular target: T4, kinases (KINOMEscan panel) (Homo sapiens, UniProt O14936); details: kinase CASK; NEW KINOMEscan
T4 sequence (O14936 1-926): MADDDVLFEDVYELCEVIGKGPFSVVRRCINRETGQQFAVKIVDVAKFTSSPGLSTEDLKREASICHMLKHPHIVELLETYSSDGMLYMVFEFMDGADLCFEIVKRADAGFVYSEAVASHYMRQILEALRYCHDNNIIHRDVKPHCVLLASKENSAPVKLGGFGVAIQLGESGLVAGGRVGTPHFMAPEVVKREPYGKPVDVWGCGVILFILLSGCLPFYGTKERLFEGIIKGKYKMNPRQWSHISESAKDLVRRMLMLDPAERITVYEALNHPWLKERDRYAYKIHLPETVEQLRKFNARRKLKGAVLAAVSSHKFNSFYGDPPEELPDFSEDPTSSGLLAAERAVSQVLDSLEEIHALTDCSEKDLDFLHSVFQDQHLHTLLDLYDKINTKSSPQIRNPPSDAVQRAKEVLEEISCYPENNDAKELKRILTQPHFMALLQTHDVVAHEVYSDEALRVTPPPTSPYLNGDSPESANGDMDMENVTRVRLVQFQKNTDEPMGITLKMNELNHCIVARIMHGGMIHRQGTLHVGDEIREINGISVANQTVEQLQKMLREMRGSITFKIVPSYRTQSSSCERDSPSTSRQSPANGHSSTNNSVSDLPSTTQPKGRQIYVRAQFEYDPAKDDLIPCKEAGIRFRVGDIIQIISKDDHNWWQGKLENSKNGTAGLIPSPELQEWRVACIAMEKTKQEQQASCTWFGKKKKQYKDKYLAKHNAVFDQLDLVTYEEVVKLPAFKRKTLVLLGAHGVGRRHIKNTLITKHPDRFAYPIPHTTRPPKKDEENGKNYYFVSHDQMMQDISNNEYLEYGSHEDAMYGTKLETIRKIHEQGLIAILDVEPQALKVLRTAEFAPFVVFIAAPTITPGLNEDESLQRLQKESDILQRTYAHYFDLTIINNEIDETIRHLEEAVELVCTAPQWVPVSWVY

[5] = molecular target: kinases (KINOMEscan panel) (Homo sapiens, UniProt Q14012); details: CAMK1; NEW KINOMEscan
kinases (KINOMEscan panel) (Homo sapiens, UniProt Q14012), sequence (Q14012 whole entry): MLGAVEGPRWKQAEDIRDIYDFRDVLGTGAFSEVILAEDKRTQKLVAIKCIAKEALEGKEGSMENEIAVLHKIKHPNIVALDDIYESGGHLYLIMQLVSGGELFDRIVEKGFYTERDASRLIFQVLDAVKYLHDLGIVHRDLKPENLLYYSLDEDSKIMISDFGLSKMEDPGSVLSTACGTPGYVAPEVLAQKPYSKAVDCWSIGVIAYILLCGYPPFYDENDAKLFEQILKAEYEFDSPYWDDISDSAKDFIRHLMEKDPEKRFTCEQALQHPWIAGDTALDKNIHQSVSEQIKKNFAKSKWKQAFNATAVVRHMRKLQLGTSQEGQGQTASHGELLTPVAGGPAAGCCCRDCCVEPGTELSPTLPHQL

Cc1cccc(-c2nc(Nc3ccc4nn(C)cc4c3)c3ccccc3n2)n1 [NK167]
KINOMEscan SGK1 [1]: 0
KINOMEscan GRK3 [2]: 0
KINOMEscan SNRK [3]: 6
KINOMEscan CASK [4]: 0
KINOMEscan CAMK1 [5]: 0

Cc1cccc(-c2nc(N(C)c3ccc4ncsc4c3)c3ccccc3n2)n1 [NK-161]
KINOMEscan SGK1 [1]: 14
KINOMEscan GRK3 [2]: 25
KINOMEscan SNRK [3]: 7
KINOMEscan CASK [4]: 0
KINOMEscan CAMK1 [5]: 0

Reference: article PMC9851200, “Multiparameter phenotypic screening for endogenous TFEB and TFE3 translocation identifies novel chemical series modulating lysosome function” (Autophagy, 2022)
